In patent US20250320246A1, “3-AZASTEROID COMPOUNDS FOR THE TREATMENT OF DISEASES RELATED TO MITROCHONDRIAL FUNCTION” (NZP UK LIMITED, priority 2022, published 2025):

What was measured:
Type in all cases: cell-based, human
[1] = system: sporadic PD patient fibroblasts; test: Cellular ATP levels in sporadic PD patient fibroblasts, full ATP assay; settings: Homo sapiens, Fibroblast, 24 h, 3 sporadic PD patient fibroblasts
[2] = system: sporadic Parkinson's disease patient fibroblast lines; test: Mitochondrial respiration (oxygen consumption rate), Seahorse Mito Stress test; settings: 50 nM for 24 hours, sPD fibroblasts
Procedure: Oxygen consumption rate (OCR) was measured by the Agilent Seahorse Mito Stress test using a 24-well Agilent Seahorse XF analyzer machine (Agilent). Human fibroblasts where plated at a density of 60,000 cells per well. Cells were treated with compound 50 nM for 24 hours prior to measurement. 3 measurements of OCR were taken in each state: basal state, after addition of oligomycin (0.5 μM), FCCP (0.5 μM) and rotenone (1 μM). A cell count was then done on a fixed assay plate using a Hoechst dye (1 μM). Data presented is normalized to cell number.

[3] = system: iNeurons from sPD patients; test: Mitochondrial membrane potential (MMP) in iNeurons from sPD patients
Procedure: (§1) The fibroblasts lines and iNPC lines have previously been characterised and published in Carling et al, 2020.
(§2) Briefly, iNPCs are plated in a 6-well plate and cultured for 2 days in DMEM/F-12 medium with Glutamax™ supplemented with 1% NEAA, 2% B27 (Gibco) and 2.5 μM of DAPT. On day 3, DAPT is removed and the medium is supplemented with 1 μM smoothened agonist (SAG) and FGF8 (75 ng/ml) for additional 10 days. Neurons are replated at this stage. Subsequently SAG and FGF8 are withdrawn and replaced with BDNF (30 ng/ml), GDNF (30 ng/ml), TGF-b3 ([…]) and dcAMP (2 mM, Sigma) for 15 days, as previously described Schwartzentruber et al, 2020 and Carling et al, 2020. Dopaminergic neurons were treated with compounds at concentrations of 0.1 nM, 1 nM, 3 nM, 10 nM, 30 nM and 100 nM dosing every 3 days for the last 12 days of differentiation.
(§3) iNeurons were treated every 3 days for the last 12 days of the differentiation protocol. Cells are plated in 96 well plates; for live imaging cells are incubated for one hour at 37° C. with 80 nM tetramethlyrhodamine (TMRM), 1 μM LysoTracker® Green (Invitrogen) and Hoechst Stain solution (Sigma) at 1 μM before imaging using Opera Phenix™. Cellular ATP measurements are undertaken using ATPlite kit (Perkin Elmer) as per manufacturer's instructions. Mitochondrial reactive oxygen species generation was assessed using mitochondrial NpFR2 (probe; a kind gift from Dr Liz New, University of Sydney, Australia) at 20 μM and Hoechst stain solution at 1 μM for 30 mins at 37° C., then the dyes are removed and cells images using Opera Phenix™. Images generated from the live imaging experiments were analysed using Harmony® (Perkin Elmer software). We developed protocols in order to segment nucleus, cell boundary and processes, mitochondria, lysosomes, autophagosomes. We only analysed the z projection images collected from the z stacks.

[4] = system: iNeurons from sPD patients; test: Mitochondrial reactive oxygen species (ROS) in iNeurons from sPD patients; settings: sPD patient iNeurons treated; untreated sPD patients 115
Procedure: as §1, §2, §3

Question: How did the EC50 ([1]; 8-point range 0.06 nM-300 nM) turn out when C[C@H](CCCC(=O)O)[C@H]1CC[C@H]2[C@@H]3[C@@H](O)C[C@@H]4CNCC[C@]4(C)[C@H]3CC[C@]12C.Cl [Compound 28b, 3-Aza-7β-hydroxy-25-homo-5β-cholan-25-oic acid hydrochloride] was run?
Answer: 32.9 nM

Question: What about the Emax at 0.3 µM ([1]; max response with highest dose of compound (300 nM), read-out: ATP % of vehicle, top %) of the same compound?
Answer: 138%

Question: What about the activity at 60 pM ([1]; max response with lowest dose of compound (0.06 nM), read-out: ATP % of vehicle, bottom %) of the same compound?
Answer: 94.6%

Question: What about the basal mitochondrial respiration ([2]; p<0.05, vehicle sPD reduced 30% vs controls) of the same compound?
Answer: increases basal respiration in the sPD fibroblasts to control levels

Question: What about the ATP linked respiration ([2]; to a lesser extent, vehicle sPD reduced 23% vs controls) of the same compound?
Answer: Increases are also seen

Question: And the spare respiratory capacity ([2]; to a lesser extent, vehicle sPD reduced 42% vs controls)?
Answer: Increases are also seen

Question: What about the EC50 ([3]; Homo sapiens, sPD patient iNeurons, dosing every 3 days for last 12 days of differentiation) of the same compound?
Answer: 8.2 nM

Question: What about the “MMP normalisation (% of controls)” value ([3]; sPD patient iNeurons treated, untreated sPD patients 52) of the same compound?
Answer: 76 % of controls

Question: And the “ROS normalisation (% of controls)” value [4]?
Answer: 109 % of controls
